Measured values: patent US20240009204A1 (Starton Therapeutics, Inc., priority 2020, published 2024)
Marks after values point to notes of the source that are not given here.

Assays:
[1] = tested on: healthy female volunteers; assay: Phase 1 study: antiemetic effect of oral olanzapine doses after apomorphine challenge; format: in vivo, human; conditions: for Nausea Score 1-120 min. / Nausea Score 1-120 min. (severity in words) / Retching (incidence) / Vomiting (incidence): apomorphine challenge day 8; for Nausea Score 1-120 min.: 1=no nausea, 10=severe nausea
Procedure: Twenty-four healthy female volunteers were enrolled. Four active-treatment groups and a cohort of placebo-treated subjects were evaluated.
Subjects were administered study drug once daily for 8 days. During this period, subjects maintained a study diary of their side effects. The subject diary was used to collect on a daily basis any adverse events including an assessment of the presence and/or intensity of sedation on a numeric scale where 1=no sedation and 10=excessive sedation.
On the 8th day, subjects were administered apomorphine at a dose of 0.05 mg/kg and assessed over 6 hours. During this period, subjects were asked to record episodes of nausea on a numeric scale every 15 minutes for the duration of assessment. The intensity of nausea was captured using a 1-10 rating scale where 1=no nausea and 10=severe nausea. Emesis intensity was also captured where 1=no emesis and 10=severe emesis. Episodes of retching or emesis were collected and measured for the absolute number of retches or vomits during the collection period and documented for the time of the specific event following the administration of the apomorphine.

[2] = clinical; conditions: human, plasma, po
[3] = oral, statistical integration of nausea scores and incidence of retching and vomiting

Cc1cc2c(s1)Nc1ccccc1N=C2N1CCN(C)CC1 [olanzapine, 2-methyl-10-(4-methyl-1-piperazinyl)-4H-thieno-[2,3-b][1.5]benzo-diazepine]
Nausea severity scores 0-120 min following apomorphine challenge, versus placebo ([1]; 2 mg and 8 mg doses): not significantly different than placebo | Nausea severity scores 0-120 min following apomorphine challenge, versus placebo ([1]; 4 mg and 6 mg steady state doses, p<0.05): significantly different than placebo | maximum intensity of nausea, compared between doses ([1]; between the 4 mg, 6 mg and 8 mg dose): no different | Nausea Score 1-120 min. ([1]; oral 2 mg a day for 8 days): 6** | Nausea Score 1-120 min. (severity in words) ([1]; oral 2 mg a day): Moderate | Retching (incidence) ([1]; oral 2 mg a day): 40% | Vomiting (incidence) ([1]; oral 2 mg a day): 40% | Nausea Score 1-120 min. ([1]; oral 4 mg a day for 8 days): 3.4 # | Nausea Score 1-120 min. (severity in words) ([1]; oral 4 mg a day): Mild | Retching (incidence) ([1]; oral 4 mg a day): 0% | Vomiting (incidence) ([1]; oral 4 mg a day): 20% | Nausea Score 1-120 min. ([1]; oral 6 mg a day for 8 days): 3.7 # | Nausea Score 1-120 min. (severity in words) ([1]; oral 6 mg a day): Mild | Retching (incidence) ([1]; oral 6 mg a day): 0% | Vomiting (incidence) ([1]; oral 6 mg a day): 0% | Nausea Score 1-120 min. ([1]; oral 8 mg a day for 8 days): 5** | Nausea Score 1-120 min. (severity in words) ([1]; oral 8 mg a day): Mild | Retching (incidence) ([1]; oral 8 mg a day): 20% | Vomiting (incidence) ([1]; oral 8 mg a day): 20% | minimum effective dose for nausea [1, 3]: 4 mg a day | optimal dose for nausea and vomiting [1, 3]: 6 mg a day | Cmax at 1 day ([2]; 4 mg): 4 to 6 ng/mL | Cmax at 1 day ([2]; 6 mg): 6 to 9 ng/mL
